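Step 1: Grow cells in 96-well plates. Step 2: Expose to compound for 48 hours at 5 concentrations. Step 3: Interpolate endpoints linearly; if unreached, use highest concentration. GI50 = concentration required for 50% inhibition of growth.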 Active and inactive are the calls of the source. Cut-off read from the data, not from the text of the source: active = GI50 up to about 1.1 µM and inactive = higher.
What was measured:
Experiment in all cases: inhibition of tumour cell growth, NCI panel, 48 h
[1] = tested on: 786-0
[2] = tested on: HOP-62
[3] = tested on: SK-OV-3
[4] = tested on: OVCAR-8
[5] = tested on: SK-MEL-5
[6] = tested on: TK-10
[7] = tested on: K562
[8] = tested on: CAKI-1
[9] = tested on: OVCAR-3
[10] = tested on: MCF7
[11] = tested on: CCRF-CEM
[12] = tested on: NCI/ADR-RES
[13] = tested on: SNB-75
[14] = tested on: ACHN
[15] = tested on: HCT-15
[16] = tested on: SW-620
[17] = tested on: COLO 205
[18] = tested on: Malme-3M
[19] = tested on: SR
[20] = tested on: RPMI-8226

Row | SMILES | GI50 [1] | GI50 [2] | GI50 [3] | GI50 [4] | GI50 [5] | GI50 [6] | GI50 [7] | GI50 [8] | GI50 [9] | GI50 [10] | GI50 [11] | GI50 [12] | GI50 [13] | GI50 [14] | GI50 [15] | GI50 [16] | GI50 [17] | GI50 [18] | GI50 [19] | GI50 [20]
1 | O=C(O)C1CC2C3CCC2C1C3=O (configuration not stated) | > 100 µM (inactive) | > 100 µM (inactive) | > 100 µM (inactive) | > 100 µM (inactive) | > 100 µM (inactive) | > 100 µM (inactive) | > 100 µM (inactive) | > 100 µM (inactive) | > 100 µM (inactive) | > 100 µM (inactive) | > 100 µM (inactive) | > 100 µM (inactive) | > 100 µM (inactive) | > 100 µM (inactive) | > 100 µM | > 100 µM (inactive) | > 100 µM (inactive) | > 100 µM (inactive) | > 100 µM (inactive) | 
2 | Cc1ccc(Nc2nnc(-c3ccc4c(c3)OCO4)o2)c(C)c1 | 41.4 µM (inactive) | > 100 µM (inactive) | > 100 µM (inactive) | 55.1 µM (inactive) | > 100 µM (inactive) | > 100 µM (inactive) | > 100 µM (inactive) | > 100 µM (inactive) | > 100 µM (inactive) | 38.8 µM (inactive) |  | > 100 µM (inactive) | > 100 µM (inactive) | > 100 µM (inactive) | > 100 µM | > 100 µM (inactive) | > 100 µM (inactive) | > 100 µM (inactive) | 31.1 µM (inactive) | 54 µM (inactive)
3 | N#Cc1ccc(-c2nc3c(N)nc(-c4ccccc4)nc3o2)cc1 | > 100 µM (inactive) | 19.7 µM (inactive) |  | 12.9 µM (inactive) | > 100 µM (inactive) | > 100 µM (inactive) | > 100 µM (inactive) | > 100 µM (inactive) | 61.4 µM (inactive) | > 100 µM (inactive) | > 10 µM (inactive) | 40.3 µM (inactive) | 72.9 µM (inactive) | 26.9 µM (inactive) | > 100 µM | > 100 µM (inactive) | > 100 µM (inactive) |  | > 100 µM (inactive) | > 100 µM (inactive)
4 | COC(=O)[C@]12CC[C@H]3CN(C(=O)OCc4ccccc4)[C@H]([C@H]31)[C@H](c1ccco1)N2 | 77.8 µM (inactive) | 90.2 µM (inactive) | > 100 µM (inactive) | 33 µM (inactive) | 17 µM (inactive) | > 100 µM (inactive) | 30.4 µM (inactive) | 35.8 µM (inactive) | 51.6 µM (inactive) | 42.3 µM (inactive) | 33.4 µM (inactive) | 18.1 µM (inactive) |  | 43.5 µM (inactive) | 23.9 µM | > 100 µM (inactive) | 20.1 µM (inactive) | 23.3 µM (inactive) | 44.9 µM (inactive) | 27.4 µM (inactive)
5 | C#CCOC(=O)C(=[N+]=[N-])C(=O)CC(C)C | > 10 µM (inactive) | > 10 µM (inactive) | > 10 µM (inactive) | > 10 µM (inactive) | > 10 µM (inactive) | > 10 µM (inactive) | > 10 µM (inactive) | > 10 µM (inactive) | > 10 µM (inactive) | > 10 µM (inactive) | > 10 µM (inactive) | > 10 µM (inactive) |  | > 10 µM (inactive) | > 10 µM | > 10 µM (inactive) | > 10 µM (inactive) | > 10 µM (inactive) | > 10 µM (inactive) | > 10 µM (inactive)
6 | Nc1c(C(=O)c2ccc(Cl)cc2)[nH]c(Nc2ccc(Cl)cc2)c1C(=S)Nc1ccccc1 | 2.9 µM (inactive) | 5.65 µM (inactive) | 6.52 µM (inactive) | 3.12 µM (inactive) |  | 5.4 µM (inactive) | 3.29 µM (inactive) | 6.05 µM (inactive) | 3.19 µM (inactive) | 4.41 µM (inactive) | 6.27 µM (inactive) | 2.53 µM (inactive) | 3 µM (inactive) | 2.21 µM (inactive) | 4.01 µM | 6.43 µM (inactive) | 4.13 µM (inactive) | 8.34 µM (inactive) | 1.92 µM (inactive) | 14.5 µM (inactive)
7 | CC(C)CC(NC(=O)C(CCI)Cc1ccccc1)C(=O)Nc1ccccc1 (configuration not stated) | > 100 µM (inactive) |  | > 100 µM (inactive) | 49.5 µM (inactive) | 55.3 µM (inactive) | 88.7 µM (inactive) | 44.6 µM (inactive) | > 100 µM (inactive) | > 100 µM (inactive) | 39.7 µM (inactive) | 30.1 µM (inactive) | 19 µM (inactive) | 93.8 µM (inactive) | 53.5 µM (inactive) | 49.9 µM | 49.8 µM (inactive) | 95.9 µM (inactive) | > 100 µM (inactive) | 22.8 µM (inactive) | 36.9 µM (inactive)

— ChEMBL document CHEMBL1201862, “PubChem BioAssay data set” (2004)
